The term solubility denotes the dissolved amount per volume that the medium holds.

We go through 2 compounds from US12637452B2, “Crystalline forms of a substituted imidazopyridine compound and use thereof as P2X3 modulator” (GlaxoSmithKline Intellectual Property (No. 3) Limited, priority 2018, dated 2026).

What all share (assay type): physicochemical
Data set [1] is described as follows: Approximate solubility of starting material in 28 solvents at RT. The note with it: 25 °C, thermodynamic from solid, starting material Form A0. The protocol:
Approximate solubility of starting material (Compound 1, Form A0) was determined in 28 solvents at RT (25±3° C.). ˜2 mg of the starting material was added into each 3-mL glass vial. Solvents were then added stepwise (50/50/200/700 μL per step) into the vials until the solids were dissolved visually or a total volume of 1 mL was reached. Solubility results summarized in Table 2 were used to guide the solvent selection in screening design.

A short description of data set [2]: Theoretical maxima water uptake of a monohydrate from the single crystal structure. The note with it: only lattice waters considered. The source says: A single crystal structure of Compound 1 Type A* family (form Type A0) was collected using crystals grown in ACN/H2O (1:3, v/v). Data were collected at 123 K using a Bruker D8 VENTURE diffractometer (Mo/Kα λ=0.71073 Å) with the following instrument parameters:
From the single crystal structure, there are four possible hydration sites in the unit cell. If each of the hydration sites is occupied by one water molecule, a monohydrate would be expected, which should correspond to the theoretical maxima water incorporation in the crystal lattice of Type A* family crystals. For a monohydrate, if only lattice waters are considered, the theoretical maxima water uptake is 3.9%, which is very close to the experimental DVS results (˜4.1-4.2% at 100% RH at 25° C.). In addition, there may be less than one water molecule on each hydration site because of the disorder, and a stoichiometry of less than 1:1 for water:API may be expected in an actual Type A* family crystal which is consistent with the almost linear increase/decrease of water content as a function of humidity in the DVS test.

Data set [3] can be described thus: Dynamic vapor sorption (DVS) test, water uptake and form stability as a function of relative humidity. As to the method:
DVS test was performed using an SMS (Surface Measurement Systems) DVS Intrinsic instrument. The relative humidity were calibrated against deliquescence point of LiCl, Mg(NO3)2 and KCl. The following instrument parameters were used at 25° C. and 40° C.:
DVS test was performed for Type A* family to investigate its form stability as a function of relative humidity. The DVS test was first conducted in a couple of cycles with different ends (30% and 95% RH) at 25° C. The samples were equilibrated at each RH point until wt % change was lower than 0.002% or the total time reached 3 hrs.
The crystal forms after DVS test were detected by XRPD. For the cycle (ambient RH-95% RH-0% RH-30% RH), the crystal form after DVS test was determined to be Type A (FIG. 5), corresponding to the ambient humidity (61.5% RH) when performing XRPD analysis. While for the cycle (ambient RH-95% RH-0% RH-95% RH), Type A1 was observed after DVS test (FIG. 7), corresponding to the ambient humidity (66.3% RH) when performing XRPD analysis.
DVS test was also conducted in the cycle (ambient RH-95% RH-0% RH-95% RH) at 40° C.

Converted amounts (≈) assume the structure as drawn.

For `CNC(=O)c1cc(F)c(-c2nc3cc(C)ccn3c2C[C@H]2CN(C(=O)OC)CCO2)c(F)c1` [Compound 1, methyl (S)-2-((2-(2,6-difluoro-4-(methylcarbamoyl)phenyl)-7-methylimidazo[1,2-a]pyridin-3-yl)methyl)morpholine-4-carboxylate], the solubility in data set [1] (organic solvent or mixture, solvent 1,2-Dichloroethane, RT (25±3° C.)) was greater than 38000 µg/mL; in data set [1] (organic solvent or mixture, solvent 1,4-Dioxane, RT (25±3° C.)), 2400 to 8000 µg/mL (≈ 5.23 to 17.4 mM); in data set [1] (organic solvent or mixture, solvent 1-Propanol, RT (25±3° C.)) it was greater than 38000 µg/mL; in data set [1] (organic solvent or mixture, solvent 2-MeTHF, RT (25±3° C.)), 1800 to 6000 µg/mL (≈ 3.93 to 13.1 mM); in data set [1] (organic solvent or mixture, solvent ACN, RT (25±3° C.)), 20000 to 40000 µg/mL (≈ 43.6 to 87.2 mM); in data set [1] (organic solvent or mixture, solvent Acetone, RT (25±3° C.)) it was 19000 to 38000 µg/mL (≈ 41.4 to 82.9 mM). Moreover, the solubility in data set [1] (organic solvent or mixture, solvent Anisole, RT (25±3° C.)) was 2000 to 6700 µg/mL (≈ 4.36 to 14.6 mM); in data set [1] (organic solvent or mixture, solvent Butyl acetate, RT (25±3° C.)) it was less than 2400 µg/mL; in data set [1] (organic solvent or mixture, solvent CHCl3, RT (25±3° C.)), greater than 40000 µg/mL; in data set [1] (organic solvent or mixture, solvent DCM, RT (25±3° C.)), greater than 40000 µg/mL; in data set [1] (organic solvent or mixture, solvent DMF, RT (25±3° C.)), greater than 38000 µg/mL; in data set [1] (organic solvent or mixture, solvent DMSO, RT (25±3° C.)), greater than 48000 µg/mL. The solubility in data set [1] (organic solvent or mixture, solvent Diethyleneglycol, RT (25±3° C.)) was 2400 to 8000 µg/mL (≈ 5.23 to 17.4 mM); in data set [1] (organic solvent or mixture, solvent Dimethoxyethane, RT (25±3° C.)), 6700 to 20000 µg/mL (≈ 14.6 to 43.6 mM); in data set [1] (organic solvent or mixture, solvent EtOAc, RT (25±3° C.)), less than 2000 µg/mL; in data set [1] (organic solvent or mixture, solvent EtOH, RT (25±3° C.)), greater than 46000 µg/mL; in data set [1] (organic solvent or mixture, solvent IPA, RT (25±3° C.)) it was 20000 to 40000 µg/mL (≈ 43.6 to 87.2 mM); in data set [1] (organic solvent or mixture, solvent IPAc, RT (25±3° C.)), less than 1900 µg/mL. The solubility in data set [1] (organic solvent or mixture, solvent MEK, RT (25±3° C.)) was 7700 to 23000 µg/mL (≈ 16.8 to 50.2 mM); in data set [1] (organic solvent or mixture, solvent MIBK, RT (25±3° C.)), less than 2200 µg/mL; in data set [1] (organic solvent or mixture, solvent MTBE, RT (25±3° C.)) it was less than 2200 µg/mL; in data set [1] (organic solvent or mixture, solvent MeOH, RT (25±3° C.)), greater than 44000 µg/mL; in data set [1] (organic solvent or mixture, solvent THF, RT (25±3° C.)), greater than 46000 µg/mL; in data set [1] (organic solvent or mixture, solvent Toluene, RT (25±3° C.)), less than 2000 µg/mL. Besides, the solubility in data set [1] (organic solvent or mixture, solvent n-Butanol, RT (25±3° C.)) was greater than 42000 µg/mL; in data set [1] (organic solvent or mixture, solvent n-Heptane, RT (25±3° C.)), less than 1900 µg/mL; in data set [1] (organic solvent or mixture, solvent n-Hexane, RT (25±3° C.)), less than 2200 µg/mL; in data set [1] (water, solvent H2O, RT (25±3° C.)) it was less than 2400 µg/mL.

In the case of `CNC(=O)c1cc(F)c(-c2nc3cc(C)ccn3c2C[C@H]2CN(C(=O)OC)CCO2)c(F)c1` [Type A* family, methyl (S)-2-((2-(2,6-difluoro-4-(methylcarbamoyl)phenyl)-7-methylimidazo[1,2-a]pyridin-3-yl)methyl)morpholine-4-carboxylate], in data set [2], the “theoretical maxima water uptake” value is reported as 3.9%. For the same compound, the “crystal form after DVS test (XRPD)” value is “Type A” in data set [3] (25° C., cycle ambient RH-95% RH-0% RH-30% RH, ambient humidity 61.5% RH at XRPD analysis); “Type A1” in data set [3] (25° C., cycle ambient RH-95% RH-0% RH-95% RH, ambient humidity 66.3% RH at XRPD analysis); “Type A1” in data set [3] (40° C., cycle ambient RH-95% RH-0% RH-95% RH, ambient humidity 69.5% RH at XRPD test). Further, the “water uptake, experimental DVS results” value in data set [3] (at 100% RH at 25° C.) is given as 4.1-4.2%.
